Reference: patent publication US20170081338A1, “SUBSTITUTED HETEROARYL COMPOUNDS AND METHODS OF USE” (Sunshine Lake Pharma Co., Ltd., priority 2015, published 2017)
pIC50: −log10 of the molar value.

Key:
[1] = Compound stability in human liver microsomes; format: in vitro ADME; settings: pH 7.4; for half-life at 5 μM: human liver microsomes 0.5 mg protein/mL, compound 5 μM, NADPH, 37° C., read-out: Human T1/2; for CLint scaled at 5 μM: human liver microsomes, in vivo CLint extrapolated
Method: (§1) Human or rat liver microsomes incubations were conducted in duplicate in polypropylene tubes. The typical incubation mixtures consisted of human or rat liver microsomes (0.5 mg protein/mL), compounds of interest (5 μM) and NADPH (1.0 mM) in a total volume of 200 μL potassium phosphate buffer (PBS, 100 mM, pH 7.4). Compounds were dissolved in DMSO and diluted with PBS such that the final concentration of DMSO was 0.05%. The enzymatic reactions were commenced with the addition of protein after a 3-min preincubation and incubated in a water bath open to the air at 37° C. Reactions were terminated at various time points (0, 5, 10, 15, 30, 60 min) by adding equal volume of ice-cold acetonitrile. The samples were stored at −80° C. until LC/MS/MS assays.
(§2) The concentrations of compounds in the incubation mixtures of human or rat liver microsomes were determined by a LC/MS/MS method. The ranges of the linearity in the concentration range were determined for each tested compounds.
(§3) A parallel incubation was performed using denatured microsomes as the negative control, and reactions were terminated at various time points (0, 15, 60 min) after incubation at 37° C.
(§4) Dextromethorphan (70 μM) was selected as the positive control, and reactions were terminated at various time points (0, 5, 10, 15, 30, 60 min) after incubation at 37° C. Both positive and negative control samples were included in each assay to ensure the integrity of the microsomal incubation system.
(§5) The concentrations of compounds in human or rat liver microsome incubations were plotted as a percentage of the relevant zero time point control for each reaction. The in vivo CLint were extrapolated (ref.: Naritomi, Y.; Terashita, S.; Kimura, S.; Suzuki, A.; Kagayama, A.; and Sugiyama, Y.; Prediction of human hepatic clearance from in vivo animal experiments and in vitro metabolic studies with liver microsomes from animals and humans. Drug Metab. Dispos., 2001, 29: 1316-1324).

[2] = Compound stability in rat liver microsomes; format: in vitro ADME; settings: pH 7.4; for half-life at 5 μM: rat liver microsomes 0.5 mg protein/mL, compound 5 μM, NADPH, 37° C., read-out: Rat T1/2; for CLint scaled at 5 μM: rat liver microsomes, in vivo CLint extrapolated
Method: as §1, §2, §3, §4, §5

Aurora-A (h) = biological target: T1, Aurora-A (h) (Homo sapiens, UniProt O14965); assay: Aurora-A (h) kinase assay; format: biochemical
T1 construct: purchased Millipore UK Ltd (contract assay service)
T1 sequence (O14965 1-403): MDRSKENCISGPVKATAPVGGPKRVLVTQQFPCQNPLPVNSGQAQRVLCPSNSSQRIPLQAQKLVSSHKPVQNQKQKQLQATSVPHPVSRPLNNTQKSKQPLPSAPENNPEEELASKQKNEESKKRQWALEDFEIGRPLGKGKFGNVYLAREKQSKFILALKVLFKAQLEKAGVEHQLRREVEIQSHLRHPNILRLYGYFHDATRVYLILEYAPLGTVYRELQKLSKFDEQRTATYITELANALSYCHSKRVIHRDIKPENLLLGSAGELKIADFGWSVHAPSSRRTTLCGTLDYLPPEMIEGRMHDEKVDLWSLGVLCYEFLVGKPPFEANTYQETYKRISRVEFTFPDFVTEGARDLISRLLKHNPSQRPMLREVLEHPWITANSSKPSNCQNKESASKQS
Method: The above assay procedure can be used to determine the IC50 for inhibition and/or the inhibition constant, Ki. The IC50 is defined as the concentration of compound required to reduce the enzyme activity by 50% under the condition of the assay. The IC50 value is estimated by preparing a 10 point curve using a 1/2 log dilution series (for example, a typical curve may be prepared using the following compound concentrations: 3 μM, 1 μM, 0.3 μM, 0.1 μM, 0.03 μM, 0.01 μM, 0.003 μM, 0.001 μM, 0.0003 μM and 0 μM).
Aurora-A (h) is incubated with 8 mM MOPS pH 7.0, 0.2 mM EDTA, 200 μM LRRASLG (Kemptide), 10 mM MgAcetate and [γ-^33P-ATP] (specific activity approx. 500 cpm/pmol, concentration as required). The reaction is initiated by the addition of the MgATP mix. After incubation for 40 minutes at room temperature, the reaction is stopped by the addition of 3% phosphoric acid solution. 10 μL of the reaction is then spotted onto a P30 filtermat and washed three times for 5 minutes in 75 mM phosphoric acid and once in methanol prior to drying and scintillation counting.
The kinase assays described herein were performed at Millipore UK Ltd, Dundee Technology Park, Dundee DD2 1SW, UK.

[3] = Pharmacokinetics after intravenous and oral administration in rats; format: in vivo; settings: for Clearance (CL) after iv dosing / AUC(0-t) / half-life / Vd: dose 1 mg/kg, iv dosing; for F: oral bioavailability; for AUC(0-t) / half-life / Vd: rat, plasma; for Vd: read-out: Vss
Method: The LC/MS/MS system used in the analysis consists of an Agilent 1200 Series vacuum degasser, binary pump, well-plate autosampler, thermostatted column compartment, the Agilent G6430 Triple Quadrupole Mass Spectrometer with an electrosprayionization (ESI) source. Quantitative analysis was carried out using MRM mode. The parameters for MRM transitions are in the Table A.
An Agilent XDB-C18, 2.1×30 mm, 3.5 μM column was used for the analysis. 5 μL of the samples were injected. Analysis condition: The mobile phase was 0.1% formic acid in water (A) and 0.1% formic acid in methanol (B). The flow rate was 0.4 mL/min. And the gradient of Mobile phase was in the Table B.
Alternatively, an Agilent 6330 series LC/MS/MS spectrometer equipped with G1312A binary pumps, a G1367A autosampler and a G1314C UV detector were used in the analysis. An ESI source was used on the LC/MS/MS spectrometer. The analysis was done in positive ion mode as appropriate and the MRM transition for each analyte was optimized using standard solution. A Capcell MP-C18 100×4.6 mm I.D., […] column (Phenomenex, Torrance, Calif., USA) was used during the analysis. The mobile phase was 5 mM ammonia acetate, 0.1% MeOH in water (A): 5 mM ammonia acetate, 0.1% MeOH in acetonitrile (B) (70/30, v/v). The flow rate was 0.6 mL/min. Column was maintained at ambient temperature. 20 μL of the samples were injected.
The compounds disclosed herein are assessed in pharmacokinetic studies in mice, rats, dogs or monkeys. The compounds are administered as a water solution, 2% HPMC+1% TWEEN®80 in water solution, 5% DMSO+5% solutol in saline, 4% MC suspension or capsule. For the intravenous administration, the animals are generally given at 0.5, 1 or 2 mg/kg dose. For the oral (p.o.) dosing, mice and rats are generally given 0.5, 1, 5 or 10 mg/kg dose, and dogs and monkeys are generally given 10 mg/kg dose. The blood samples (0.3 mL) are drawn at 0.25, 0.5, 1.0, 2.0, 3.0, 4.0, 6.0, 8.0, 12 and 24 h time points or 0.083, 0.25, 0.5, 1.0, 2.0, 4.0, 6.0, 8.0 and 24 h time points and centrifuged at 3,000 or 4000 rpm for 2 to 10 min. The plasma solutions are collected, and stored at −20° C. or −70° C. until analyzed by LC/MS/MS as described above.

| Compound | half-life at 5 μM [1] [min] | CLint scaled at 5 μM [1] [mL/min/kg] | half-life at 5 μM [2] [min] | CLint scaled at 5 μM [2] [mL/min/kg] | pIC50 (Aurora-A (h)) | Clearance (CL) after iv dosing [3] [mL/min/kg] | F [3] [%] | AUC(0-t) [3] [ng·h/mL] | half-life [3] [min] | Vd [3] [L/kg] |
| --- | --- | --- | --- | --- | --- | --- | --- | --- | --- | --- |
| Cn1cc(Nc2ncc(Cl)c(N[C@@H]3COC4C3OC[C@@H]4Nc3ccc(C#N)nn3)n2)cn1 (stereo partly drawn) [Ex. 3, 6-(((3S,6R)-6-((5-chloro-2-((1-methyl-1H-pyrazol-4-yl)amino)pyrimidin-4-yl)amino)hexahydrofuro[3,2-b]furan-3-yl)amino)pyridazine-3-carbonitrile] | 142 | 12.3 | 22 | 113 | 7.35 |  |  |  |  |  |
| Cn1cc(Nc2ncc(Cl)c(N[C@@H]3COC4C3OC[C@@H]4NS(=O)(=O)C3CC3)n2)cn1 (stereo partly drawn) [Ex. 4, N-((3S,6R)-6-((5-chloro-2-((1-methyl-1H-pyrazol-4-yl)amino)pyrimidin-4-yl)amino)hexahydrofuro[3,2-b]furan-3-yl)cyclopropanesulfonamide] | 563 | 3.09 | 103 | 24 | 7.28 | 23.7 | 51.7 | 712 | 21 | 0.69 |
| Cn1cc(Nc2ncc(Cl)c(N[C@H]3COC4C3OC[C@H]4NS(=O)(=O)CC(F)(F)F)n2)cn1 (stereo partly drawn) [Ex. 5, N-((3R,6S)-6-((5-chloro-2-((1-methyl-1H-pyrazol-4-yl)amino)pyrimidin-4-yl)amino)hexahydrofuro[3,2-b]furan-3-yl)-2,2,2-trifluoroethanesulfonamide] | 243 | 7.16 | 82.7 | 30 | 6.00 | 38.8 | 44.0 | 420 | 108 | 2.01 |
| Cn1cc(Nc2ncc(Cl)c(N[C@H]3COC4C3OC[C@H]4NS(=O)(=O)N3CCCC3)n2)cn1 (stereo partly drawn) [Ex. 6, N-((3R,6S)-6-((5-chloro-2-((1-methyl-1H-pyrazol-4-yl)amino)pyrimidin-4-yl)amino)hexahydrofuro[3,2-b]furan-3-yl)pyrrolidine-1-sulfonamide] | 37.3 | 46.5 | 37.7 | 65.8 | 6.01 | 53.8 | 44.3 | 309 | 34.8 | 1.54 |
| CC(C)CS(=O)(=O)N[C@@H]1COC2C1OC[C@@H]2Nc1nc(Nc2cnn(C)c2)ncc1Cl (stereo partly drawn) [Ex. 13, N-((3R,6S)-6-((5-chloro-2-((1-methyl-1H-pyrazol-4-yl)amino)pyrimidin-4-yl)amino)hexahydrofuro[3,2-b]furan-3-yl)-2-methylpropane-1-sulfonamide] | 32.9 | 52.8 | 41.4 | 60 | 5.99 | 57 | 74.5 | 291 | 58.2 | 2.56 |
| Cn1cc(Nc2ncc(Cl)c(N[C@@H]3COC4C3OC[C@@H]4NS(=O)(=O)C3CCCC3)n2)cn1 (stereo partly drawn) [Ex. 14, N-((3S,6R)-6-((5-chloro-2-((1-methyl-1H-pyrazol-4-yl)amino)pyrimidin-4-yl)amino)hexahydrofuro[3,2-b]furan-3-yl)cyclopentanesulfonamide] | 24.7 | 70.4 | 47.7 | 52.1 | 7.29 | 33.3 | 91.9 | 497 | 54 | 1.08 |

More lines, now with the values ahead:

| half-life at 5 μM [1] [min] | CLint scaled at 5 μM [1] [mL/min/kg] | half-life at 5 μM [2] [min] | CLint scaled at 5 μM [2] [mL/min/kg] | pIC50 (Aurora-A (h)) | Clearance (CL) after iv dosing [3] [mL/min/kg] | F [3] [%] | AUC(0-t) [3] [ng·h/mL] | half-life [3] [min] | Vd [3] [L/kg] | Compound |
| --- | --- | --- | --- | --- | --- | --- | --- | --- | --- | --- |
| 143 | 12.1 | 91.6 | 27.1 | 7.47 | 23.2 | 86.5 | 726 | 47.4 | 1.11 | CC(C)S(=O)(=O)N[C@H]1COC2C1OC[C@H]2Nc1nc(Nc2cnn(C)c2)ncc1Cl (stereo partly drawn) [Ex. 15, N-((3S,6R)-6-((5-chloro-2-((1-methyl-1H-pyrazol-4-yl)amino)pyrimidin-4-yl)amino)hexahydrofuro[3,2-b]furan-3-yl)propane-2-sulfonamide] |
| 39.1 | 44.4 | 106 | 23.4 | 7.77 |  |  |  |  |  | Cn1cc(Nc2ncc(Cl)c(N[C@@H]3COC4C3OC[C@@H]4NS(=O)(=O)CC3CCOC3)n2)cn1 (stereo partly drawn) [Ex. 16, N-((3S,6R)-6-((5-chloro-2-((1-methyl-1H-pyrazol-4-yl)amino)pyrimidin-4-yl)amino)hexahydrofuro[3,2-b]furan-3-yl)-1-(tetrahydrofuran-3-yl)methanesulfonamide] |
| 75.5 | 23 | 116 | 21.5 | 7.39 | 60.3 | 42.5 | 284 | 27.6 | 1.41 | Cn1cc(Nc2ncc(Cl)c(N[C@@H]3COC4C3OC[C@@H]4NS(=O)(=O)C3CCOC3)n2)cn1 (stereo partly drawn) [Ex. 20, N-((3S,6R)-6-((5-chloro-2-((1-methyl-1H-pyrazol-4-yl)amino)pyrimidin-4-yl)amino)hexahydrofuro[3,2-b]furan-3-yl)tetrahydrofuran-3-sulfonamide] |
